According to PMC8742467, “Therapeutical interference with the epigenetic landscape of germ cell tumors: a comparative drug study and new mechanistical insights” (Clinical Epigenetics, 2022):
Where two headings read alike, the source gives them in different places.

What was measured:
GCT cell lines = test: XTT cell viability assay, GCT cell lines (pre-screen / summary); assay type: cell-based, Human; conditions: first pre-screen, XTT; for EC50: read-out: EC50; for EC50 / effective concentration in words: SE and EC proxies TCam-2 and 2102EP
Method: (§1) The […] (XTT) assays were performed as described previously. In summary, for GCT and fibroblast cell lines 5 × 10^3 cells (3 × 10^3 for UC, PCa and RCC cell lines) per 96-well were seeded and different drug concentrations (see Additional file 2: Fig. S2, Additional file 3: Fig. S3) or corresponding solvents were added to the cells the following day. For drug details see Additional file 12: Table S2 C. Each condition was analyzed in four technical replicates and EC50 values were calculated by GraphPad Prism v8.

TCam-2 (SE) = test: XTT cell viability assay, TCam-2; assay type: cell-based; conditions: Homo sapiens; after 48 h, XTT, n = 4; read-out: EC50 colour/symbol code, SE TCam-2
Method: as §1

2102EP (EC) = test: XTT cell viability assay, 2102EP; assay type: cell-based; conditions: Homo sapiens; after 48 h, XTT, n = 4; read-out: EC50 colour/symbol code, EC 2102EP
Method: as §1

JAR (CC) = test: XTT cell viability assay, JAR; assay type: cell-based; conditions: Homo sapiens, after 48 h, n = 4, read-out: EC50 colour/symbol code, CC JAR
Method: as §1

[1] = test system: histone modifications in 2102EP cells; test: Mass spectrometry analysis of histone modifications (Mod Spec); assay type: cell-based, Human
Method: 2102EP cells were treated with the EC50 concentrations for Quisinostat, JIB-04, Chaetocin, MZ-1, LP99, PRT4165, GSK343 and DMSO as solvent control. The cells were harvested via trypsinization after 16 h. The mass spectrometric analysis of histone modifications was outsourced to the Mod Spec service by Active Motif (Carlsbad, CA, USA). Histone extraction and mass spectrometric analysis was performed as described previously. Raw data were transformed into z-scores as the input. The heatmap was generated in R using ‘pheatmap’ with default settings and provided by Active Motif.

[2] = test system: DNA methylation (5mC, 5hmC) in 2102EP cells; test: DNA slot blot (5mC, 5hmC); assay type: cell-based, Human; conditions: 24 h
Method: Purity of DNA was verified using NanoDrop 260/280 ratio and agarose gel electrophoresis. DNA was diluted in H2O to 200 ng, 100 ng and 50 ng in 200 µl per slot. Slot-Blotter device (Carl Roth GmbH + Co KG, Karlsruhe, Germany) was assembled as according to the manual. DNA was blotted onto a positively charged nylon membrane (Carl Roth GmbH + Co KG, Karlsruhe, Germany) using vacuum application. Three identical membranes were prepared. The membranes were air-dried for 15—20 min and UV-crosslinked (20 s (s), 1200 mJ/cm^2). One membrane was stained with methylene blue (0.02% methylene blue (Merck Millipore, Darmstadt, Germany) in 0.3 M sodium acetate (pH 5.2)) to validate DNA loading across the samples. The remaining two membranes were blocked in 5% milk powder in PBST for 1 h at RT. Membranes were incubated with 5mC or 5hmC antibody overnight at 4 °C. After washing, membranes were incubated with secondary antibody for 2 h at RT. Signals were detected using the ChemiDoc Imaging Systems (Bio-Rad Laboratories, Feldkirchen, Germany).

[3] = test system: transcriptome of 2102EP cells; test: RNA sequencing; assay type: cell-based, Human; conditions: 16 h
Method: Transcriptome analysis has been performed as previously described at the core facility ‘Genomics & Transcriptomics’ (Prof. Dr. Karl Köhrer, Biomedical Research Center, Heinrich Heine University, Düsseldorf, Germany) and has been publicly shared via GEO (https://www.ncbi.nlm.nih.gov/geo/, GSE189472). RNA samples were quantified and measured as previously described. Statistical analyses were performed using the ‘Differential Expression in two groups’ tool (version 1.02) (Qiagen) and the resulting p values were corrected for multiple testing by false discovery rate (FDR). Accompanying PCA and heatmap were generated using Qlucore Omics Explorer 3.7 (Qlucore AB, Lund, Sweden). Values of solvent controls wereaveraged from the studies GSE189472, GSE190792 and GSE190022 [95].

[4] = test system: phosphorylated kinase targets in 2102EP cells; test: Proteome Profiler Human Phospho-Kinase Array; assay type: cell-based; conditions: 16 h
Method: For the detection of phosphorylated kinase targets, the Proteome Profiler Human Phospho-Kinase Array Kit (R&D Systems, Abingdon, UK) was used according to the manufacturer’s instructions. The ChemiDoc Imaging System (Bio-Rad Laboratories, Feldkirchen, Germany) was used for detection. 2102EP cells were harvested after 16 h of treatment with the epi-drugs. Pixel density was analyzed using Fiji ImageJ 1.53c.

[5] = 2102EP cells, Mod Spec raw data
[6] = 2102EP, EC50, 16 h, vs solvent control
[7] = sorted data log2>±1.5, FDR p<0.05

COc1cc(-c2cn(C)c(=O)c3cnccc23)c(OC)cc1CN(C)C [BI-9564]
EC50 (GCT cell lines; Homo sapiens, GCT): > 50 µM
EC50 (TCam-2 (SE)): > 50 µM
EC50 (2102EP (EC)): > 50 µM
EC50 (JAR (CC)): > 50 µM

Clc1ccc(N/N=C(\c2ccccc2)c2ccccn2)nc1 [JIB-04]
EC50 / effective concentration in words (GCT cell lines): nanomolar range
H1.4: K25AC, % of peptide pool [1, 5]: 0.003915%
H1.4: K25ME1, % of peptide pool [1, 5]: 2.18%
H1.4: K25ME2, % of peptide pool [1, 5]: 0.06041%
H1.4: K25ME3, % of peptide pool [1, 5]: 0.002903%
H1.4: K25UN, % of peptide pool [1, 5]: 97.7528%
H2A1: K13AC, % of peptide pool [1, 5]: 0.01774%
H2A1: K13UN, % of peptide pool [1, 5]: 99.9823%
H2A1: K15AC, % of peptide pool [1, 5]: 0.006947%
H2A1: K15UB, % of peptide pool [1, 5]: 0%
H2A1: K15UN, % of peptide pool [1, 5]: 99.9931%
H2A3: K13AC, % of peptide pool [1, 5]: 0.0449%
H2A3: K13UN, % of peptide pool [1, 5]: 99.9551%
H2A3: K15AC, % of peptide pool [1, 5]: 0.04676%
H2A3: K15UB, % of peptide pool [1, 5]: 0%
H2A3: K15UN, % of peptide pool [1, 5]: 99.9532%
H2A: K5AC, % of peptide pool [1, 5]: 17.3435%
H2A: K5UN, % of peptide pool [1, 5]: 82.6565%
H2A: K9AC, % of peptide pool [1, 5]: 2.608%
H2A: K9UN, % of peptide pool [1, 5]: 97.3916%
H2A: K36AC, % of peptide pool [1, 5]: 0.02653%
H2A: K36UN, % of peptide pool [1, 5]: 99.9735%
H3: K9AC, % of peptide pool [1, 5]: 0.7026%
H3: K9ME1, % of peptide pool [1, 5]: 34.4011%
H3: K9ME2, % of peptide pool [1, 5]: 29.5437%
H3: K9ME3, % of peptide pool [1, 5]: 3.1432%
H3: K9UN, % of peptide pool [1, 5]: 32.2094%
H3: K14AC, % of peptide pool [1, 5]: 29.7131%
H3: K14UN, % of peptide pool [1, 5]: 70.2869%
H3: K18AC, % of peptide pool [1, 5]: 13.9058%
H3: K18ME1, % of peptide pool [1, 5]: 0.1878%
H3: K18UN, % of peptide pool [1, 5]: 85.9064%
H3: K23AC, % of peptide pool [1, 5]: 21.6519%
H3: K23ME1, % of peptide pool [1, 5]: 0.01047%
H3: K23UN, % of peptide pool [1, 5]: 78.3377%
H3: K56AC, % of peptide pool [1, 5]: 0.09324%
H3: K56ME1, % of peptide pool [1, 5]: 0.04566%
H3: K56UN, % of peptide pool [1, 5]: 99.8611%
H3: K64AC, % of peptide pool [1, 5]: 0.01353%
H3: K64UN, % of peptide pool [1, 5]: 99.9865%
H3: K79AC, % of peptide pool [1, 5]: 0.03684%
H3: K79ME1, % of peptide pool [1, 5]: 12.2939%
H3: K79ME2, % of peptide pool [1, 5]: 5.57%
H3: K79ME3, % of peptide pool [1, 5]: 6.201%
H3: K79UN, % of peptide pool [1, 5]: 75.8979%
H3: K122AC, % of peptide pool [1, 5]: 0.03356%
H3: K122UN, % of peptide pool [1, 5]: 99.9664%
H3: Q19ME1, % of peptide pool [1, 5]: 0.003167%
H3: Q19UN, % of peptide pool [1, 5]: 99.9968%
H3: Q55ME1, % of peptide pool [1, 5]: 0.032%
H3: Q55UN, % of peptide pool [1, 5]: 99.968%
H3: R42ME2, % of peptide pool [1, 5]: 1.896%
H3: R42UN, % of peptide pool [1, 5]: 98.1041%
H3: R49ME2, % of peptide pool [1, 5]: 4.211%
H3: R49UN, % of peptide pool [1, 5]: 95.789%
H3R2UN: K4AC, % of peptide pool [1, 5]: 0.05876%
H3R2UN: K4ME1, % of peptide pool [1, 5]: 17.7716%
H3R2UN: K4ME2, % of peptide pool [1, 5]: 0.2231%
H3R2UN: K4ME3, % of peptide pool [1, 5]: 0.06844%
H3R2UN: K4UN, % of peptide pool [1, 5]: 81.8781%
H3R2UN: Q5ME1, % of peptide pool [1, 5]: 0.02831%
H3R2UN: Q5UN, % of peptide pool [1, 5]: 99.9717%
H3.1: K27AC, % of peptide pool [1, 5]: 2.414%
H3.1: K27ME1, % of peptide pool [1, 5]: 49.3304%
H3.1: K27ME2, % of peptide pool [1, 5]: 16.204%
H3.1: K27ME3, % of peptide pool [1, 5]: 1.814%
H3.1: K27UN, % of peptide pool [1, 5]: 30.2382%
H3.1: K36AC, % of peptide pool [1, 5]: 0.1106%
H3.1: K36ME1, % of peptide pool [1, 5]: 13.2702%
H3.1: K36ME2, % of peptide pool [1, 5]: 51.7553%
H3.1: K36ME3, % of peptide pool [1, 5]: 20.9267%
H3.1: K36UN, % of peptide pool [1, 5]: 13.9372%
H3.3: K27AC, % of peptide pool [1, 5]: 4.408%
H3.3: K27M, % of peptide pool [1, 5]: 0%
H3.3: K27ME1, % of peptide pool [1, 5]: 52.2182%
H3.3: K27ME2, % of peptide pool [1, 5]: 11.913%
H3.3: K27ME3, % of peptide pool [1, 5]: 2.973%
H3.3: K27UN, % of peptide pool [1, 5]: 28.488%
H3.3: K36AC, % of peptide pool [1, 5]: 1.2917%
H3.3: K36ME1, % of peptide pool [1, 5]: 11.4367%
H3.3: K36ME2, % of peptide pool [1, 5]: 56.7436%
H3.3: K36ME3, % of peptide pool [1, 5]: 20.5666%
H3.3: K36UN, % of peptide pool [1, 5]: 9.961%
H4: K5AC, % of peptide pool [1, 5]: 7.467%
H4: K5UN, % of peptide pool [1, 5]: 92.5334%
H4: K8AC, % of peptide pool [1, 5]: 11.3876%
H4: K8UN, % of peptide pool [1, 5]: 88.6124%
H4: K12AC, % of peptide pool ([1]; 2102EP cells, Mod Spec raw data, histone H4 K12 acetylated): 6.714 % of peptide pool
H4: K12UN, % of peptide pool ([1]; 2102EP cells, Mod Spec raw data, histone H4 K12 unmodified): 93.2862 % of peptide pool
H4: K16AC, % of peptide pool ([1]; 2102EP cells, Mod Spec raw data, histone H4 K16 acetylated): 46.6822 % of peptide pool
H4: K16UN, % of peptide pool ([1]; 2102EP cells, Mod Spec raw data, histone H4 K16 unmodified): 53.3178 % of peptide pool
H4: K20AC, % of peptide pool ([1]; 2102EP cells, Mod Spec raw data, histone H4 K20 acetylated): 14.5151 % of peptide pool
H4: K20ME2, % of peptide pool ([1]; 2102EP cells, Mod Spec raw data, histone H4 K20 dimethylated): 53.9426 % of peptide pool
H4: K20ME1, % of peptide pool ([1]; 2102EP cells, Mod Spec raw data, histone H4 K20 monomethylated): 5.183 % of peptide pool
H4: K20ME3, % of peptide pool ([1]; 2102EP cells, Mod Spec raw data, histone H4 K20 trimethylated): 2.177 % of peptide pool
H4: K20UN, % of peptide pool ([1]; 2102EP cells, Mod Spec raw data, histone H4 K20 unmodified): 24.182 % of peptide pool
change of histone modifications of the expected mode of action (Mod Spec) [1, 6]: slightly increased H3K4me2/me3 marks
off-target changes of histone modifications (Mod Spec) [1, 6]: decrease in H4K16ac and H4K20ac
reduction in 5mC levels [2]: 27%
DDIT4 Log2 fold change vs. DMSO [3, 7]: 1.60
EIF3CL Log2 fold change vs. DMSO [3, 7]: -1.72
SLC16A3 Log2 fold change vs. DMSO [3, 7]: 1.76
A1BG Log2 fold change vs. DMSO ([3]; unsorted data): -0.0173
A1CF Log2 fold change vs. DMSO ([3]; unsorted data): -2.00
A2M Log2 fold change vs. DMSO ([3]; unsorted data): 0.04
CREB, STAT3 and STAT5 phosphorylation and total levels of β-Catenin and HSP60 [4]: decreased
ERK1/2 phosphorylation [4]: decreased
p53 S15 phosphorylation [4]: increased

NC(=O)c1cccnc1 [Nicotinamide]
EC50 (GCT cell lines; Homo sapiens, GCT): > 50 µM
EC50 (TCam-2 (SE)): > 50 µM
EC50 (2102EP (EC)): > 50 µM
EC50 (JAR (CC)): > 50 µM

NC(=O)C1CCCc2c1[nH]c1ccc(Cl)cc21 (stereo not shown) [Selisistat]
EC50 (GCT cell lines): > 50 µM

COc1cc(-c2cn(C)c(=O)c3cnccc23)cc(OC)c1CN1CCN(CCCCCOc2cc(-c3scnc3C)ccc2CNC(=O)[C@@H]2C[C@@H](O)CN2C(=O)[C@@H](NC(=O)C2(F)CC2)C(C)(C)C)CC1 [VZ185]
EC50 / effective concentration in words (GCT cell lines): low micromolar concentrations
EC50 (TCam-2 (SE)): 1 to 50 µM
EC50 (2102EP (EC)): 1 to 50 µM
EC50 (JAR (CC)): 1 to 50 µM
